Assay [1] deals with Phakopsora pachyrhizi (F129L). Nature of the assay: Protective control of soybean rust on soybeans (PHAKPA P2). It is filed as in vivo. The following applies: for % PHAKPA (F129L) Disease level P2 at 4 ppm: protective P2, 4 ppm; for % PHAKPA (F129L) Disease level P2 at 4 ppm / % PHAKPA (F129L) Disease level P2 at 16 ppm: soybean rust F129L; for % PHAKPA (F129L) Disease level P2 at 16 ppm: protective P2, 16 ppm.

The test system of assay [2] is Phakopsora pachyrhizi (F129L). Nature of the assay: Protective control of soybean rust on soybeans (PHAKPA P6). The assay is classed as in vivo. The note with it: for % PHAKPA (F129L) Disease level P6 at 4 ppm: protective P6, 4 ppm; for % PHAKPA (F129L) Disease level P6 at 4 ppm / % PHAKPA (F129L) Disease level P6 at 16 ppm: soybean rust F129L; for % PHAKPA (F129L) Disease level P6 at 16 ppm: protective P6, 16 ppm.

As for `C#Cc1cc(/C(C)=N/OCc2c(C)cccc2/C(=N\OC)C(=O)NC)cc(C(F)(F)F)c1` [compound 148], in assay [1], the “% PHAKPA (F129L) Disease level P2 at 4 ppm” value is on record as 9% and the “% PHAKPA (F129L) Disease level P2 at 16 ppm” value came to 2%. Besides, in assay [2], the “% PHAKPA (F129L) Disease level P6 at 4 ppm” value worked out at 13% and the “% PHAKPA (F129L) Disease level P6 at 16 ppm” value came out at 7%.

Take `CO/N=C(/C(=O)OC)c1cccc(C)c1CO/N=C(\C)c1ccc(C#N)cc1C(F)(F)F` [compound 423]: in assay [1], the “% PHAKPA (F129L) Disease level P2 at 4 ppm” value is listed as 100% and the “% PHAKPA (F129L) Disease level P2 at 16 ppm” value is on record as 57%. For the same compound, in assay [2], the “% PHAKPA (F129L) Disease level P6 at 4 ppm” value was 93% and the “% PHAKPA (F129L) Disease level P6 at 16 ppm” value is 53%.

Regarding `CO/N=C(/C(=O)OC)c1cccc(Br)c1CO/N=C(\C)c1ccccc1` [compound 395], in assay [1], the “% PHAKPA (F129L) Disease level P2 at 4 ppm” value is listed as 43% and the “% PHAKPA (F129L) Disease level P2 at 16 ppm” value is on record as 4%. For the same compound, in assay [2], the “% PHAKPA (F129L) Disease level P6 at 4 ppm” value is 67% and the “% PHAKPA (F129L) Disease level P6 at 16 ppm” value is reported as 18%.

As for `CNC(=O)/C(=N/OC)c1cccc(C)c1CO/N=C(\C)c1ccc(C)c(C)c1` [compound 139], in assay [1], the “% PHAKPA (F129L) Disease level P2 at 4 ppm” value amounted to 47% and the “% PHAKPA (F129L) Disease level P2 at 16 ppm” value is 2%. Also, in assay [2], the “% PHAKPA (F129L) Disease level P6 at 4 ppm” value is reported as 72% and the “% PHAKPA (F129L) Disease level P6 at 16 ppm” value stood at 24%.

`CCc1ccccc1/C(C)=N/OCc1c(C)cccc1/C(=N\OC)C(=O)NC` [compound 176]: in assay [1], the “% PHAKPA (F129L) Disease level P2 at 4 ppm” value was 100% and the “% PHAKPA (F129L) Disease level P2 at 16 ppm” value is listed as 100%. Moreover, in assay [2], the “% PHAKPA (F129L) Disease level P6 at 4 ppm” value stood at 100% and the “% PHAKPA (F129L) Disease level P6 at 16 ppm” value is listed as 90%.

On to `CO/N=C(/C(=O)OC)c1ccccc1CO/N=C(\C)c1ccc(Cl)cc1` [reference compound], for which the “PHAKPA (F129L) Disease level (%) P2 at 16 ppm” value in assay [1] (P2 protective, 16 ppm, % diseased leaf area) is 63%. Further, the “PHAKPA (F129L) Disease level (%) P6 at 16 ppm” value in assay [2] (P6 protective, 16 ppm, % diseased leaf area) worked out at 43%.

For the compound `CO/N=C(/C(=O)OC)c1cccc(C)c1CO/N=C(\C)c1cc(Cl)cc(C(F)(F)F)c1` [compound 33], in assay [1], the “% PHAKPA (F129L) Disease level P2 at 4 ppm” value is 50% and the “% PHAKPA (F129L) Disease level P2 at 16 ppm” value came out at 33%. In assay [2], the “% PHAKPA (F129L) Disease level P6 at 4 ppm” value stood at 60% and the “% PHAKPA (F129L) Disease level P6 at 16 ppm” value turned out to be 75%.

As to `CNC(=O)/C(=N/OC)c1cccc(C)c1CO/N=C(\C)c1cccc(C#N)c1` [compound 112], in assay [1], the “% PHAKPA (F129L) Disease level P2 at 4 ppm” value is 13% and the “% PHAKPA (F129L) Disease level P2 at 16 ppm” value is 3%. Further, in assay [2], the “% PHAKPA (F129L) Disease level P6 at 4 ppm” value came out at 30% and the “% PHAKPA (F129L) Disease level P6 at 16 ppm” value is given as 9%.

`CNC(=O)/C(=N/OC)c1cccc(C)c1CO/N=C(\C)c1ccc(-c2ccccc2)cc1C(F)(F)F` [compound 413]: in assay [1], the “% PHAKPA (F129L) Disease level P2 at 4 ppm” value was found to be 40% and the “% PHAKPA (F129L) Disease level P2 at 16 ppm” value stood at 15%. Besides, in assay [2], the “% PHAKPA (F129L) Disease level P6 at 4 ppm” value is reported as 33% and the “% PHAKPA (F129L) Disease level P6 at 16 ppm” value amounted to 15%.

Regarding `CO/N=C(/C(=O)OC)c1cccc(C)c1CO/N=C(\C)c1cc(F)cc(F)c1` [compound 87], in assay [1], the “% PHAKPA (F129L) Disease level P2 at 4 ppm” value came to 8% and the “% PHAKPA (F129L) Disease level P2 at 16 ppm” value was 0%. Besides, in assay [2], the “% PHAKPA (F129L) Disease level P6 at 4 ppm” value was 7% and the “% PHAKPA (F129L) Disease level P6 at 16 ppm” value amounted to 0%.

In the case of `CNC(=O)/C(=N/OC)c1cccc(C)c1CO/N=C(/c1ccccc1)C(F)F` [Ex. 73], in assay [1] (P2 protective, 4 ppm, % diseased leaf area), the “PHAKPA (F129L) Disease level (%) P2 at 4 ppm” value is 1%. Also, the “% PHAKPA (F129L) Disease level P2 at 4 ppm” value in assay [1] turned out to be 0%. Besides, in assay [2] (P6 protective, 4 ppm, % diseased leaf area), the “PHAKPA (F129L) Disease level (%) P6 at 4 ppm” value is listed as 37%. Also, the “% PHAKPA (F129L) Disease level P6 at 4 ppm” value in assay [2] is 19%.

With `CNC(=O)/C(=N/OC)c1cccc(C)c1CO/N=C(\C)c1cc(C)ccc1C` [compound 278], in assay [1], the “% PHAKPA (F129L) Disease level P2 at 4 ppm” value was determined as 90% and the “% PHAKPA (F129L) Disease level P2 at 16 ppm” value amounted to 60%. For the same compound, in assay [2], the “% PHAKPA (F129L) Disease level P6 at 4 ppm” value worked out at 90% and the “% PHAKPA (F129L) Disease level P6 at 16 ppm” value is listed as 93%.

As for `CO/N=C(/C(=O)OC)c1cccc(C)c1CO/N=C(\C)c1c(F)ccc(F)c1OC(F)(F)F` [compound 366], in assay [1], the “% PHAKPA (F129L) Disease level P2 at 4 ppm” value is 53% and the “% PHAKPA (F129L) Disease level P2 at 16 ppm” value amounted to 13%. In assay [2], the “% PHAKPA (F129L) Disease level P6 at 4 ppm” value was 83% and the “% PHAKPA (F129L) Disease level P6 at 16 ppm” value was 12%.

For `CO/C=C(/C(=O)OC)c1cccc(C)c1CO/N=C(\C)c1c(F)cccc1C(F)(F)F` [compound 390], in assay [1], the “% PHAKPA (F129L) Disease level P2 at 4 ppm” value is recorded as 22% and the “% PHAKPA (F129L) Disease level P2 at 16 ppm” value was 0%. In assay [2], the “% PHAKPA (F129L) Disease level P6 at 4 ppm” value was found to be 18% and the “% PHAKPA (F129L) Disease level P6 at 16 ppm” value is listed as 2%.

As for `CNC(=O)/C(=N/OC)c1cccc(C)c1CO/N=C(\C)c1cccc(F)c1` [compound 85], in assay [1], the “% PHAKPA (F129L) Disease level P2 at 4 ppm” value was found to be 1% and the “% PHAKPA (F129L) Disease level P2 at 16 ppm” value came out at 0%. In assay [2], the “% PHAKPA (F129L) Disease level P6 at 4 ppm” value is 0% and the “% PHAKPA (F129L) Disease level P6 at 16 ppm” value is on record as 0%.

On to `CO/N=C(/C(=O)OC)c1cccc(C)c1CO/N=C(\C)c1ccc(Cl)cc1C(F)(F)F` [compound 304], for which, in assay [1], the “% PHAKPA (F129L) Disease level P2 at 4 ppm” value is recorded as 53% and the “% PHAKPA (F129L) Disease level P2 at 16 ppm” value is 28%. Further, in assay [2], the “% PHAKPA (F129L) Disease level P6 at 4 ppm” value came out at 100% and the “% PHAKPA (F129L) Disease level P6 at 16 ppm” value came out at 37%.

`CO/N=C(/C(=O)OC)c1cccc(C)c1CO/N=C(\C)c1ccccc1OC(F)F` [compound 253]: in assay [1], the “% PHAKPA (F129L) Disease level P2 at 4 ppm” value was 100% and the “% PHAKPA (F129L) Disease level P2 at 16 ppm” value turned out to be 87%. For the same compound, in assay [2], the “% PHAKPA (F129L) Disease level P6 at 4 ppm” value turned out to be 100% and the “% PHAKPA (F129L) Disease level P6 at 16 ppm” value is given as 57%.

As for `CNC(=O)/C(=N/OC)c1cccc(C)c1CO/N=C(\C)c1ccc(F)cc1CC(F)(F)F` [compound 394], in assay [1], the “% PHAKPA (F129L) Disease level P2 at 4 ppm” value was 9% and the “% PHAKPA (F129L) Disease level P2 at 16 ppm” value is on record as 3%. Moreover, in assay [2], the “% PHAKPA (F129L) Disease level P6 at 4 ppm” value amounted to 12% and the “% PHAKPA (F129L) Disease level P6 at 16 ppm” value is given as 2%.

On to `CNC(=O)/C(=N/OC)c1cccc(C)c1CO/N=C(\C)c1ccc(-c2cc(C)on2)cc1` [compound 64], for which, in assay [1], the “% PHAKPA (F129L) Disease level P2 at 4 ppm” value amounted to 87% and the “% PHAKPA (F129L) Disease level P2 at 16 ppm” value was 73%. In addition, in assay [2], the “% PHAKPA (F129L) Disease level P6 at 4 ppm” value was 80% and the “% PHAKPA (F129L) Disease level P6 at 16 ppm” value is 43%.

With `C=Cc1cc(/C(C)=N/OCc2c(C)cccc2/C(=N\OC)C(=O)OC)cc(C(F)(F)F)c1` [compound 147], in assay [1], the “% PHAKPA (F129L) Disease level P2 at 4 ppm” value is reported as 73% and the “% PHAKPA (F129L) Disease level P2 at 16 ppm” value is 18%. Also, in assay [2], the “% PHAKPA (F129L) Disease level P6 at 4 ppm” value was determined as 95% and the “% PHAKPA (F129L) Disease level P6 at 16 ppm” value came out at 18%.

`CO/N=C(/C(=O)OC)c1cccc(C)c1CO/N=C(\C)c1cc(C)cc(C)c1` [compound 94]: in assay [1], the “% PHAKPA (F129L) Disease level P2 at 4 ppm” value is recorded as 22% and the “% PHAKPA (F129L) Disease level P2 at 16 ppm” value worked out at 5%. For the same compound, in assay [2], the “% PHAKPA (F129L) Disease level P6 at 4 ppm” value was determined as 35% and the “% PHAKPA (F129L) Disease level P6 at 16 ppm” value is on record as 2%.

As for `CCc1ccc(/C(C)=N/OCc2c(C)cccc2/C(=N\OC)C(=O)OC)cc1` [compound 183], in assay [1], the “% PHAKPA (F129L) Disease level P2 at 4 ppm” value came out at 16% and the “% PHAKPA (F129L) Disease level P2 at 16 ppm” value is 0%. In addition, in assay [2], the “% PHAKPA (F129L) Disease level P6 at 4 ppm” value is 38% and the “% PHAKPA (F129L) Disease level P6 at 16 ppm” value came out at 2%.

For the origin of these results see US20230172204A1 (BASF SE, priority 2020, published 2023).
